Reference: patent US10758545B2, “Methods to treat neurological diseases” (UNIVERSITY OF SOUTHERN CALIFORNIA, priority 2015, dated 2020)

Test system: C9ORF72 patient iMNs
Test: induced motor neuron (iMN) survival assay, glutamate treatment
Assay type: cell-based, human
Details: excess glutamate (10 μM, 12 hrs); longitudinal tracking, log-rank
Method: For the glutamate treatment conditions, 10 μM glutamate was added to the culture medium on day 17 and removed after 12 hrs. Cells were then maintained in N3 medium with neurotrophic factors without RepSox. For the glutamate treatment conditions with glutamate receptor antagonists, cultures were co-treated with 10 μM MK801 and CNQX, and 2 μM Nimodipine during the 12 hr glutamate treatment. The antagonists were maintained for the remainder of the experiment. For the neurotrophic factor withdrawal condition, BDNF, GDNF, and CNTF were removed from the culture medium starting at day 17. Longitudinal tracking was performed by imaging neuronal cultures in a Nikon Biostation CT or Molecular Devices ImageExpress once every 24 hrs starting at day 17. Tracking of neuronal survival was performed using SVcell 2.0 (DRVision Technologies).

Cc1cccc(/C=N/Nc2cc(N3CCOCC3)nc(OCCc3ccccn3)n2)c1 [apilimod]
survival of C9ORF72 patient iMNs: increased the survival
